Data taken from US20260347319A1, “YAP/TAZ-TEAD ONCOPROTEINS INHIBITORS” (BridGene Biosciences, Inc., priority 2022, published 2026).
Like-named read-outs stand apart in the source and are kept apart here.

What was measured:
Type in all cases: cell-based
[1] = target: T1, TEAD3 (Homo sapiens, UniProt Q99594); assay: Palmitoylation assay, TEAD3 (HEK293T cells); design: unspecified tag; expressed in transfected cells; host or cells: HEK293T; conditions: 3 um compound, 24 hours
Procedure: (§1) Tagged TEAD constructs were cloned in pTriEx-6 (Novagen #71559) and transiently transfected into HEK293T cells for 24 hours. Then cells were treated with compounds for 24 hours, or treated with compounds plus 25 μM alkyne palmitic acid (for palmitoylation assay), and cell pellets were collected. Cells were lysed in lysis Buffer (100 mM Tris-HCl, 150 mM NaCl, 1% Triton, 5 mg/mL protease inhibitor cocktail), centrifuged for 10 min at 15000 g, TEAD proteins were pulled down and subjected to click-chemistry with TAMRA azide (Click Chemistry Tools #AZ109) to label compound-modified protein. Protein bands were separated by SDS-gel electrophoresis, target bands at expected molecular size were visualized using BioRad ChemiDoc Imaging system, band intensities were quantified by Image Studio.
Target sequence in this assay (Q99594 whole entry): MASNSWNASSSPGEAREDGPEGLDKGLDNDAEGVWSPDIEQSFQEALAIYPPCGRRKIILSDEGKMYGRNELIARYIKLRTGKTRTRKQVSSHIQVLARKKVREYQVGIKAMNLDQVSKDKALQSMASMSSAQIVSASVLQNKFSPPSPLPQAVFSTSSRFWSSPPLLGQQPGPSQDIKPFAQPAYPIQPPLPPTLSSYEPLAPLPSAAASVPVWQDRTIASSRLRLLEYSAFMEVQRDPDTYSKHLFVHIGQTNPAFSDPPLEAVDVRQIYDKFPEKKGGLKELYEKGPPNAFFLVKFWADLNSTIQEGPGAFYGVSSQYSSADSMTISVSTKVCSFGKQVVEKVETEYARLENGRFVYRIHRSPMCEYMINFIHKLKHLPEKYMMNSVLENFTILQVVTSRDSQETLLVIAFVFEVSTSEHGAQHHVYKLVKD

[2] = tested on: TEAD1; assay: ELISA assay in H226 cells, TEAD1; conditions: Homo sapiens, NCI-H226, overnight
Procedure: (§2) ELISA: 750k cells were plated per well of 6-well plate for 24 hours, treated with compounds overnight, cells were then lysed in lysis Buffer with 5 mg/mL protease inhibitor (Cell Signaling #9803), centrifuged at 12000 g for 5 min. Cell lysates were normalized to 2 mg/mL for subsequent assays. A 96-well assay plate (Corning #3690) was coated with TEAD antibodies (anti-TEAD1: Cell Signaling #12292, 1:100; anti-TEAD2: LSBio #LS-C101693-100, 1:50; anti-TEAD3: Abcam #ab75192, 1:100; anti-TEAD4: Abcam #ab58310, 1:400) overnight at 4° C. Plates were washed with TBST (Thermo Fisher #28360) for 3 times, blocked in 100 μL blocking buffer (2% BSA-TBST, Sigma #A7030) for 1 hour at room temperature. 50 μL cell lysates were incubated overnight at 4° C. with shaking. The next day, plates were washed with TBST three times, incubated with 1:125 anti-YPA-HRP (Cell Signaling #15028S) for 4 hours at 4° C., followed by 3× washing in TBST, then incubated in HRP substrate (Thermo Fisher #34021) for 10 min at room temperature, reaction was stopped by TMB stop solution (Thermo Fisher #N600). Signal was read at wavelength 450 nm.

[3] = target: T2, TEAD2 (Homo sapiens, UniProt Q15562); assay: Palmitoylation assay, TEAD2 (HEK293T cells); design: unspecified tag; expressed in transfected cells; host or cells: HEK293T; conditions: 3 um compound, 24 hours
T2 sequence (Q15562 whole entry): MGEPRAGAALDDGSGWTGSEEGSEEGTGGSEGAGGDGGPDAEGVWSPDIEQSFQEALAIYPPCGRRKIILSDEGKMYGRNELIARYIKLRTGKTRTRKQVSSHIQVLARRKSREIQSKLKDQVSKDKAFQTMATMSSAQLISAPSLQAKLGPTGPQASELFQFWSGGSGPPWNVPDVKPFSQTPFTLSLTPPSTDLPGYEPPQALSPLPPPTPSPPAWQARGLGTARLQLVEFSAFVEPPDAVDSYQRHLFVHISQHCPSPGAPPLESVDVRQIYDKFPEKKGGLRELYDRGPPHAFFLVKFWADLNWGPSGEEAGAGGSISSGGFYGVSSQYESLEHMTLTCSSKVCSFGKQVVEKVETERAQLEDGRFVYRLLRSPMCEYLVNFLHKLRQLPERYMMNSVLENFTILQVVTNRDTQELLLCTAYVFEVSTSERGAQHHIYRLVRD
Procedure: as §1

[4] = target: T3, TEAD4 (Homo sapiens, UniProt Q15561); assay: Palmitoylation assay, TEAD4 (HEK293T cells); design: unspecified tag; expressed in transfected cells; host or cells: HEK293T; conditions: 3 um compound, 24 hours
T3 sequence (Q15561 whole entry): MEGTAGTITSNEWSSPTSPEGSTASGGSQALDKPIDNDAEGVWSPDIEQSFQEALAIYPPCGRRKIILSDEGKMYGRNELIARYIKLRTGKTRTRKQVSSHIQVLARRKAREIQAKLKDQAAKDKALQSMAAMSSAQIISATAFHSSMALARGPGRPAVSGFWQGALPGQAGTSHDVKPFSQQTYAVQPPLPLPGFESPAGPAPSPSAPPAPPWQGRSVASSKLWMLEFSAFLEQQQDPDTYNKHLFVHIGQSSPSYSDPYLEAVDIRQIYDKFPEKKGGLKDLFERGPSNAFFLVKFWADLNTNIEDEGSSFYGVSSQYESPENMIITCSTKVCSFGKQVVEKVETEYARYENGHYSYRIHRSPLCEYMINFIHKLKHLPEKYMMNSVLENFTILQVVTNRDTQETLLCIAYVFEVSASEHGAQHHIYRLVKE
Procedure: as §1

[5] = tested on: TEAD1; assay: Palmitoylation assay, TEAD1 (HEK293T cells); conditions: 3 um compound, 24 hours
Procedure: as §1

[6] = target: T1, TEAD3; assay: ELISA assay in H226 cells, TEAD3; design: endogenous in cells; host or cells: H226
Procedure: as §2
Target sequence in this assay (Q99594 2-435 limits assumed): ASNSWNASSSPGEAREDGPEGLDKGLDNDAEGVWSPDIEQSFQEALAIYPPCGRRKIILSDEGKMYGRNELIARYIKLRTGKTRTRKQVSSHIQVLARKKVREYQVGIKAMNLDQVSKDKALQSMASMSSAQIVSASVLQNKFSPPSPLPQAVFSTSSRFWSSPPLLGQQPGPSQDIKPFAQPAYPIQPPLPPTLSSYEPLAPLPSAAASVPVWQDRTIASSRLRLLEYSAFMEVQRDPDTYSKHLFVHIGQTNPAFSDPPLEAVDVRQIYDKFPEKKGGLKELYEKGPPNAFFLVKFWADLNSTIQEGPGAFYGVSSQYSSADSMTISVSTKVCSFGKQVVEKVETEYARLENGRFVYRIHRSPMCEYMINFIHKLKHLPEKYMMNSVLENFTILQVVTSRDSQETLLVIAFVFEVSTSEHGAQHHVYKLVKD

[7] = tested on: TEAD1; assay: MCF-7 TEAD1-luciferase reporter assay (MCF7-TEAD-Luc); conditions: MCF7 cells, overnight; for IC50: Homo sapiens; for TEAD1-Luc MCF7: Max Inhibition: % of DMSO-treated control
Procedure, shortened: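 MCF7 cells with a TEAD luciferase reporter were seeded at 10,000 per well, grown 24 hours at 37° C, then treated overnight with serially diluted compound. Luciferase signal was normalized as % inhibition relative to DMSO controls, and IC50 came from a four-parameter fit.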

[8] = target: T3, TEAD4; assay: ELISA assay in H226 cells, TEAD4; design: endogenous in cells; host or cells: H226; conditions: overnight
Procedure: as §2

[9] = target: T2, TEAD2; assay: ELISA assay in H226 cells, TEAD2; design: endogenous in cells; host or cells: H226
Procedure: as §2

[10] = tested on: H2052 cells; assay: Cell proliferation and viability assay (CPA) in H2052 cells; conditions: for IC50: Homo sapiens, NCI-H2052, read-out: CPA H2052 IC50 Ave
Procedure: (§3) Compound potency and efficacy in inhibiting cell proliferation and viability was assessed in multiple cell lines. For example, NCI-H226 cells (ATCC #CRL-5826) were seeded at 2000 cells in 200 μL medium per well of a 96-well plate (Corning #3610) and incubated at 37° C. for 24 hours, then treated with serial diluted compounds for up to 6 d. Viable cells were measured by CellTiter-Glo 2.0 Cell Viability Assay (Promega #G9243), and the luminescence signal was read using an EnSight Multimode plate reader (PerkinElmer, model 9MLDHH34000000, integration time 100 ms) with Kaleido 3.0. software. For data analysis, dose-dependent curves were plotted as “inhibition” (% of DMSO-treated control wells), and were fitted by four-parametric model in GraphPad Prism to obtain IC50 values.
(§4) Alternatively, cells were plated at 2000 cells in 200 μL medium per well of a 96-well plate (Corning #3585) overnight, treated with compound for 7 days, cell density images taken by Incycte S3 live cell analysis instrument (Sartorius) every 24 hours at the same time. Images were analyzed by Incucyte's AI-driven software to get C “% confluence” for every image. Dose-dependent curves were plotted as “% inhibition” (% o of DMSO-treated control wells) and were fitted by four-parametric model in GraphPad Prism to obtain IC50 values.

[11] = tested on: NCI-H226 cells; assay: Cell proliferation and viability assay (CPA) in NCI-H226 cells; conditions: up to 6 d; for IC50: Homo sapiens, 144 h, read-out: CPA NCI-H226 IC50 Ave
Procedure: Compound potency and efficacy in inhibiting cell proliferation and viability was assessed in multiple cell lines. For example, NCI-H226 cells (ATCC #CRL-5826) were seeded at 2000 cells in 200 μL medium per well of a 96-well plate (Corning #3610) and incubated at 37° C. for 24 hours, then treated with serial diluted compounds for up to 6 d. Viable cells were measured by CellTiter-Glo 2.0 Cell Viability Assay (Promega #G9243), and the luminescence signal was read using an EnSight Multimode plate reader (PerkinElmer, model 9MLDHH34000000, integration time 100 ms) with Kaleido 3.0. software. For data analysis, dose-dependent curves were plotted as “inhibition” (% of DMSO-treated control wells), and were fitted by four-parametric model in GraphPad Prism to obtain IC50 values. […]

[12] = tested on: NCI-H226 cells; assay: as above; conditions: up to 6 d
Procedure: as §3, §4

| Structure (SMILES) | TEAD3 Inh (palmitoylation) [1] [%] | IC50 [2] [nM] | TEAD2 Inh (palmitoylation) [3] [%] | TEAD4 Inh (palmitoylation) [4] [%] | TEAD1 Inh (palmitoylation) [5] [%] | IC50 ([6]; overnight) [nM] | IC50 [7] [nM] | TEAD1-Luc MCF7: Max Inhibition [7] | IC50 [8] [nM] | IC50 ([9]; overnight) [nM] | CPA H2052 Max Inh Ave [10] | IC50 [10] [nM] | IC50 [11] [nM] | CPA NCI-H226 Max Inh Ave [11] | IC50 [6] [nM] | IC50 [9] [nM] | IC50 ([12]; Homo sapiens, 144 h, read-out: CPA NCI-H226 IC50 Ave) [nM] | CPA NCI-H226 Max Inh Ave [12] |
| --- | --- | --- | --- | --- | --- | --- | --- | --- | --- | --- | --- | --- | --- | --- | --- | --- | --- | --- |
| C=CC(=O)N1C[C@@H](/C=C/c2ccc(C(F)(F)F)cc2)[C@H](Nc2ncccn2)C1 (single isomer, unassigned) [Example 83] | 90 | 66.4 | 54 | 52 | 93 | 107 | 10 to 100 | A (A ≥ 75%) | 219 | 17.7 |  |  |  |  |  |  |  |  |
| C=CC(=O)N1CCC(C#Cc2ccc(C(F)(F)F)cc2)C1 (stereo not drawn) [Example 38, 1-(3-((4-(trifluoromethyl)phenyl)ethynyl)pyrrolidin-1-yl)prop-2-en-1-one] | 95 | 8.7 | 69 | 71 | 93 | 5.6 | ≤ 10 | A (A ≥ 75%) | 15.5 | 3.4 | B (75% > B ≥ 50%) | ≤ 100 | ≤ 100 | B (75% > B ≥ 50%) |  |  |  |  |
| C=CC(=O)N1CC(/C=C/c2ccc(C(F)(F)F)cc2)C1 [Example 15] | 98 | 14 | 80 | 80 | 97 |  | ≤ 10 | A (A ≥ 75%) |  |  | B (75% > B ≥ 50%) | ≤ 100 |  |  | 4 | 179 | 100 to 500 | B (75% > B ≥ 50%) |
| C=CC(=O)N1CC[C@H](/C=C/c2ccc(C(F)(F)F)cc2)C1 (single isomer, unassigned) [Example 10] | 98 | 13 | 57 | 52 | 94 | 7.2 | ≤ 10 | A (A ≥ 75%) | 1010 | 89 | B (75% > B ≥ 50%) | ≤ 100 | ≤ 100 | B (75% > B ≥ 50%) |  |  |  |  |
